{"source": "patent US11219621B2", "about": "“Methods for treating immunodeficiency disease” (X4 Pharmaceuticals, Inc., priority 2015, dated 2022)", "key": {"[1]": {"system": "granulocyte-macrophage (CFU-GM), erythroid (BFU-E) and multipotential (CFU-GEMM) progenitor cells", "assay": "Progenitor/stem cell mobilization in mice after single subcutaneous injection", "assay_type": "in vivo, C3H/HeJ mice"}, "[2]": {"biological_target": "CXCR4 (Homo sapiens, UniProt P61073)", "sequence (P61073 whole entry)": "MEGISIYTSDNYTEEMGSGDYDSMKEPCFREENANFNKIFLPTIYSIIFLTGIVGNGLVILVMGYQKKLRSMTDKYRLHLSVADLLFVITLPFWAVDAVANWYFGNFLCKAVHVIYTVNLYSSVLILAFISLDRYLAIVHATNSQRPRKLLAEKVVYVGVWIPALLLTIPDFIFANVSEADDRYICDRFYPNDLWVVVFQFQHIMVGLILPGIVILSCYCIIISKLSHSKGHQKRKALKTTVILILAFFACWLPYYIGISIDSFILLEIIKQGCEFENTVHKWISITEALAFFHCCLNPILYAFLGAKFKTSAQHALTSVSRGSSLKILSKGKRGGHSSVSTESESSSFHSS", "conditions": "SDF-1α dose/response in calcium flux assay with increasing amounts of X4P-001; cited from earlier work"}, "[3]": {"biological_target": "T1, CCR2b (Homo sapiens, UniProt P41597)", "T1 construct": "expressed in transfected cells", "T1 sequence (P41597 1-360 isoform P41597-2)": "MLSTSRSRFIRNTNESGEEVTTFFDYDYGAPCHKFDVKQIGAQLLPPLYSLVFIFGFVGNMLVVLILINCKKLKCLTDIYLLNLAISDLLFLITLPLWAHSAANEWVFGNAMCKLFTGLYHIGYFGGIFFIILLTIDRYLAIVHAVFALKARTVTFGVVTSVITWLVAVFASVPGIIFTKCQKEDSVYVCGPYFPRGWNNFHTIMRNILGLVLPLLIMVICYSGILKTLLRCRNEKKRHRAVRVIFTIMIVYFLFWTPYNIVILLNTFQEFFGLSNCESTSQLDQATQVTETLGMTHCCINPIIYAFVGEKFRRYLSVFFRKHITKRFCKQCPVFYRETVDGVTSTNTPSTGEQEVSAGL", "conditions": "cited from earlier work"}, "[4]": {"biological_target": "T2, CCR5 (Homo sapiens, UniProt P51681)", "T2 construct": "expressed in transfected cells", "T2 sequence (P51681 whole entry)": "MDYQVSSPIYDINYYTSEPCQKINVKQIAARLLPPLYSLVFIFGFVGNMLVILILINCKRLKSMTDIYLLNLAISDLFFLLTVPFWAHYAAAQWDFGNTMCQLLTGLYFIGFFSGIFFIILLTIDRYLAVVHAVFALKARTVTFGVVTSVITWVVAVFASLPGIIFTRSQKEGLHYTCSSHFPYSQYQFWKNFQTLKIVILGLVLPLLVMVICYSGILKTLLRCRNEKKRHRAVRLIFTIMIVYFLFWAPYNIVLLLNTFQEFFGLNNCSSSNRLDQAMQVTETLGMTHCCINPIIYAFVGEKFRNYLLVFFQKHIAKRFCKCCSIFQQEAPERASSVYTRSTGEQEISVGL", "conditions": "cited from earlier work"}, "[5]": {"biological_target": "T3, CCR7 (Homo sapiens, UniProt P32248)", "T3 construct": "endogenous in cells", "T3 sequence (P32248 25-378)": "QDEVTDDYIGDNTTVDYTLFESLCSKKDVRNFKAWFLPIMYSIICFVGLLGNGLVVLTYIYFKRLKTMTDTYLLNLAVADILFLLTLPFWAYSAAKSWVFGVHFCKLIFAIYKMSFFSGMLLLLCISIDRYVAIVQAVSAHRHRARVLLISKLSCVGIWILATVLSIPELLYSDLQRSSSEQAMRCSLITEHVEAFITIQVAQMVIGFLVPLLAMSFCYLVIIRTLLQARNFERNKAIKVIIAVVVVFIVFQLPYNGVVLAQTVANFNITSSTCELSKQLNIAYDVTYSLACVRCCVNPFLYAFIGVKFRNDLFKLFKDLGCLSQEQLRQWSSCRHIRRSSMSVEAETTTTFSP", "conditions": "cited from earlier work"}, "[6]": {"assay": "28-Day GLP oral (capsule) toxicity study in the Beagle dog with 14-day recovery", "assay_type": "in vivo", "experimental": "A 28-Day GLP oral (capsule) toxicology study was conducted with […]-001 in the male and female beagle dog, and hematology effects were observed, with […]-001 administered twice-daily (at least 7 hours apart) by oral capsule for 28 days. A subset of treated animals was evaluated after a 14-day recovery period. [table] [table]"}, "[7]": {"biological_target": "T4, CCR1 (Homo sapiens, UniProt P32246)", "T4 construct": "expressed in transfected cells; host or cells: HEK293F", "T4 sequence (P32246 1-355)": "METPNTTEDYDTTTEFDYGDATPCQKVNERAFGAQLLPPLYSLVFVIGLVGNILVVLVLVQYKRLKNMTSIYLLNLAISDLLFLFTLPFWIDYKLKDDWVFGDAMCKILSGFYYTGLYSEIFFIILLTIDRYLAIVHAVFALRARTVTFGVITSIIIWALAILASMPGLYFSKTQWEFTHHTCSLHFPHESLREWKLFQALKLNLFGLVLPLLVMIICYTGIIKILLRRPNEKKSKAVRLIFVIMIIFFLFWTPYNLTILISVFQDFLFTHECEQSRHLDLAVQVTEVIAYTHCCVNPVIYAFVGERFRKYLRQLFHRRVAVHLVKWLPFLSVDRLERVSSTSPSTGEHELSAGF", "conditions": "cited from earlier work"}, "[8]": {"conditions": "human, in vivo"}, "[9]": {"biological_target": "T5, CCR4 (Homo sapiens, UniProt P51679)", "T5 construct": "expressed in transfected cells", "T5 sequence (P51679 1-360)": "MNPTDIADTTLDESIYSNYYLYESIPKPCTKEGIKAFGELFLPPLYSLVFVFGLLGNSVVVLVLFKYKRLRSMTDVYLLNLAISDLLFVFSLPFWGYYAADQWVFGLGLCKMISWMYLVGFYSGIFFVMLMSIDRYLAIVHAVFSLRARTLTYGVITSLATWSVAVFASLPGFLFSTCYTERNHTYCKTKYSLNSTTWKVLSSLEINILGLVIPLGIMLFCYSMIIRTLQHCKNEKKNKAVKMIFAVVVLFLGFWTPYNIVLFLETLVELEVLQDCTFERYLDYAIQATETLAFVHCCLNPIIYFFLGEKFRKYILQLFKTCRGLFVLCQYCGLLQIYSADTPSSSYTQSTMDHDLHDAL", "conditions": "cited from earlier work"}, "[10]": {"conditions": "F, 10 mg/kg/d, termination, †p < 0.05"}, "[11]": {"conditions": "F, 30 mg/kg/d, termination, †p < 0.05"}, "[12]": {"conditions": "F, 100 mg/kg/d, termination, †p < 0.05"}, "[13]": {"conditions": "M, 100 mg/kg/d, termination, †p < 0.05"}}, "data": [{"smiles": "NCCCCN(Cc1nc2ccccc2[nH]1)[C@H]1CCCc2cccnc21", "note": "[X4P-001]", "values": [{"measurement": "GEMM (CFU-GEMM), Mean", "setting": "[1]; Table 7, progenitor cells per mL of blood, 1 hour post-injection, 1.5 mg/kg s.c.", "result": 53.3}, {"measurement": "BFU (BFU-E), Mean", "setting": "[1]; Table 7, progenitor cells per mL of blood, 1 hour post-injection, 10 mg/kg s.c.", "result": 268.1}, {"measurement": "Nucleated Cellularity PBL-LD, Mean", "setting": "[1]; Table 7 dose response, 1 hour post-injection, 20 mg/kg s.c.", "result": "9.62e+06", "unit": "mL⁻¹"}, {"measurement": "BFU (BFU-E), Mean", "setting": "[1]; Table 8, progenitor cells per mL of blood, 5 mg/kg s.c., @ - 30″ (0.5 h)", "result": 151.9}, {"measurement": "BFU (BFU-E), Mean", "setting": "[1]; Table 8, progenitor cells per mL of blood, 5 mg/kg s.c., @ - 60″ (1 h)", "result": 144.3}, {"measurement": "Mode of inhibition of CXCR4", "setting": "[2]", "result": "allosteric inhibitor"}, {"measurement": "IC50", "setting": "[3]; CCR2b, HEK293F-CCR2b, MCP-1/CCL2, read-out: IC50 AMD11070", "result": "> 50", "unit": "µM"}, {"measurement": "Inhibitory effect on MCP-1 mediated calcium flux (CCR2b)", "setting": "[3]", "result": "little or no inhibitory effect"}, {"measurement": "IC50", "setting": "[4]; CCR5, HEK293F-CCR5, RANTES/CCL5, read-out: IC50 AMD11070", "result": "> 50", "unit": "µM"}, {"measurement": "Inhibitory effect on RANTES mediated calcium flux (CCR5)", "setting": "[4]", "result": "little or no inhibitory effect"}, {"measurement": "IC50", "setting": "[5]; CCR7, CCRF-CEM, MIP-3β/CCL19, read-out: IC50 AMD11070", "result": "> 50", "unit": "µM"}, {"measurement": "Inhibitory effect on MIP-3β mediated calcium flux (CCR7)", "setting": "[5]", "result": "little or no inhibitory effect"}, {"measurement": "Coagulation", "setting": "[6]; 10 mg/kg/d, termination", "result": "No changes"}, {"measurement": "reticulocytes", "setting": "[6]; 10 mg/kg/d, termination", "result": "No changes"}, {"measurement": "Coagulation", "setting": "[6]; 30 mg/kg/d, termination", "result": "No changes"}, {"measurement": "reticulocytes", "setting": "[6]; 30 mg/kg/d, termination", "result": "No changes"}, {"measurement": "Coagulation", "setting": "[6]; 100 mg/kg/d, termination", "result": "No changes"}, {"measurement": "lymphocytes (abs), incr", "setting": "[6]; F, 10 mg/kg/d, termination", "result": "F incr 1.4x"}, {"measurement": "monocytes (abs), incr", "setting": "[6]; [10]", "result": "F incr 1.6x†"}, {"measurement": "neutrophils (abs), incr", "setting": "[6]; [10]", "result": "F incr 1.9x†"}, {"measurement": "lymphocytes (abs), incr", "setting": "[6]; [11]", "result": "F incr 1.6x†"}, {"measurement": "monocytes (abs), incr", "setting": "[6]; [11]", "result": "F incr 1.9x†"}, {"measurement": "neutrophils (abs), incr", "setting": "[6]; [11]", "result": "F incr 2.3x†"}, {"measurement": "lymphocytes (abs), incr", "setting": "[6]; [12]", "result": "F incr 1.4x†"}, {"measurement": "monocytes (abs), incr", "setting": "[6]; [12]", "result": "F incr 2.4x†"}, {"measurement": "neutrophils (abs), incr", "setting": "[6]; [12]", "result": "F incr 2.8x†"}, {"measurement": "reticulocytes, decr", "setting": "[6]; [12]", "result": "F decr 0.24x†"}, {"measurement": "lymphocytes (abs), incr", "setting": "[6]; M, 10 mg/kg/d, termination", "result": "M incr 1.3x;"}, {"measurement": "monocytes (abs), incr", "setting": "[6]; M, 10 mg/kg/d, termination", "result": "M incr 1.2x;"}, {"measurement": "neutrophils (abs), incr", "setting": "[6]; M, 10 mg/kg/d, termination", "result": "M incr 1.2x;"}, {"measurement": "lymphocytes (abs), incr", "setting": "[6]; M, 30 mg/kg/d, termination", "result": "M incr 1.6x;"}, {"measurement": "monocytes (abs), incr", "setting": "[6]; M, 30 mg/kg/d, termination", "result": "M incr 1.3x;"}, {"measurement": "neutrophils (abs), incr", "setting": "[6]; M, 30 mg/kg/d, termination", "result": "M incr 1.2x;"}, {"measurement": "neutrophils (abs), incr", "setting": "[6]; M, 100 mg/kg/d, termination", "result": "M incr 1.8x;"}, {"measurement": "lymphocytes (abs), incr", "setting": "[6]; [13]", "result": "M incr 2.3x†;"}, {"measurement": "monocytes (abs), incr", "setting": "[6]; [13]", "result": "M incr 1.9x†;"}, {"measurement": "All hematology results after the 14-day recovery period", "setting": "[6]; only 100 mg/kg dose group evaluated", "result": "returned to within normal levels"}, {"measurement": "IC50", "setting": "[7]; CCR1, HEK293F-CCR1, MIP-1α/CCL3, read-out: IC50 AMD11070", "result": "> 50", "unit": "µM"}, {"measurement": "Inhibitory effect on MIP1α mediated calcium flux (CCR1)", "setting": "[7]", "result": "little or no inhibitory effect"}, {"measurement": "Volume of distribution (VL)", "setting": "[8]", "result": "high"}, {"measurement": "IC50", "setting": "[9]; CCR4, HEK293F-CCR4-Gαq15, TARC/CCL17, read-out: IC50 AMD11070", "result": "> 50", "unit": "µM"}, {"measurement": "Inhibitory effect on TARC mediated calcium flux (CCR4)", "setting": "[9]", "result": "little or no inhibitory effect"}]}]}
